Structures can show the parent of a compound that is named as a salt. Blank lines part the entries; values can stand above or below the molecule they belong to.
What was measured:
Format in all cases: physicochemical
[1] = Static storage at elevated temperature and relative humidity, re-analysis by XRPD
Description: In some examples below, X-Ray Powder Diffraction analysis was carried out on a Bruker D8 X-ray Powder Diffractometer (XRPD) instrument using Cu Kα radiation (40 kV, 40 mA) and a θ-2θ goniometer fitted with a Ge monochromator. The incident beam passes through a 2.0 mm divergence slit followed by a 0.2 mm anti-scatter slit and knife edge. The diffracted beam passes through an 8.0 mm receiving slit with 2.5° Soller slits followed by the Lynxeye Detector. The software used for data collection and analysis was Diffrac Plus XRD Commander and Diffrac Plus EVA respectively. Samples were run under ambient conditions as flat plate specimens using powder as received. The sample was prepared on a polished, zero-background (510) silicon wafer by gently pressing onto the flat surface or packed into a cut cavity. The sample was rotated in its own plane. The general experimental procedures for XRPD were: (1) angular range: 2 to 42° 2θ; (2) step size: 0.05° 2θ; and collection time: 0.5 s/step (total collection time: 6.40 min). The extended data collection experimental procedures for XRPD were: (1) angular range: 3 to 30° 2θ; (2) step size: 0.05° 2θ; and collection time: 4 s/step (total collection time: 38.00 min).
In some examples below, X-Ray Powder Diffraction analysis was carried out on a PANalytical Empyrean X-ray Powder Diffractometer (XRPD) instrument using Cu Kα radiation (45 kV, 40 mA) in transmission geometry. A 0.5° slit, 4 mm mask and 0.04 rad Soller slits with a focusing mirror were used on the incident beam. A PIXcel^3D detector, placed on the diffracted beam, was fitted with a receiving slit and 0.04 rad Soller slits. The software used for data collection was X'Pert Data Collector using X'Pert Operator Interface. The data were analysed and presented using Diffrac Plus EVA or HighScore Plus. Samples were prepared and analysed in either a metal or Millipore 96 well-plate in transmission mode. X-ray transparent film was used between the metal sheets on the metal well-plate and powders (approximately 1-2 mg) were used as received. […]

[2] = Gravimetric vapour sorption (GVS)
Description: Gravimetric Vapour sorption (GVS) was carried out using a SMS DVS Intrinsic moisture sorption analyser, controlled by DVS Intrinsic Control software. The sample temperature was maintained at 25° C. by the instrument controls. The humidity was controlled by mixing streams of dry and wet nitrogen, with a total flow rate of 200 ml/min. The relative humidity was measured by a calibrated Rotronic probe (dynamic range of 1.0-100% RH), located near the sample. The weight change, (mass relaxation) of the sample as a function of % RH was constantly monitored by a microbalance (accuracy ±0.005 mg).
Typically, 5-30 mg of sample was placed in a tared mesh stainless steel basket under ambient conditions. The sample was loaded and unloaded at 40% RH and 25° C. (typical room conditions). A moisture sorption isotherm was performed as outlined below (2 scans per complete cycle). The standard isotherm was performed at 25° C. at 10% RH intervals over a 0-90% RH range. Typically, a double cycle (4 scans) was carried out.
The sample was recovered after completion of the isotherm and re-analysed by XRPD.

[3] = Maturation in solvents (20 vol), dissolution observed; conditions: matured RT-50° C. for 3 days
Description: The methanesulfonic acid salt (20 mg) was treated with solvent (20 vol) and matured (RT −50° C., 4 h) for 3 days. Samples were then analyzed by XRPD. Attempts in improve the crystallinity of the scaled up methanesulfonic acid salt was undertaken by subjecting the material to maturation for 72 h in a variety of solvents. A slight improvement in crystallinity was observed from maturing in 2-propanol, ethyl acetate, and tert-butyl methyl ether.

- hygroscopicity ([2]; GVS, 0-90% RH): very hygroscopic
- XRPD analysis following the GVS experiment ([2]; after GVS isotherm): remained unchanged
- weight uptake ([2]; between 0-90% RH, 25° C.): 19.5 % w/w
Compound: Cc1c(Nc2nc(C(F)F)nc3cc(CN4CC[C@@H](O)C4)cnc23)cccc1-c1cccc(-c2nc3cc(CN4CCC(C(=O)O)CC4)cc(C#N)c3o2)c1C [(R)-1-((7-cyano-2-(3′-((2-(difluoromethyl)-7-((3-hydroxypyrrolidin-1-yl)methyl)pyrido[3,2-d]pyrimidin-4-yl)amino)-2,2′-dimethyl-[1,1′-biphenyl]-3-yl)benzo[d]oxazol-5-yl)methyl)piperidine-4-carboxylic acid]
- XRPD analysis following static storage ([1]; 25° C./97% RH for 5 days): remained unchanged, however a loss in crystallinity was observed
- XRPD analysis following static storage ([1]; 40° C./75% RH for 5 days): remained unchanged, however a loss in crystallinity was observed

- XRPD following static storage ([1]; 7 days at elevated temperature and relative humidity conditions): remained unchanged
Compound: Cc1c(Nc2nc(C(F)F)nc3cc(CN4CC[C@@H](O)C4)cnc23)cccc1-c1cccc(-c2nc3cc(CN4CCC(C(=O)O)CC4)cc(C#N)c3o2)c1C [Free form Form I, (R)-1-((7-cyano-2-(3′-((2-(difluoromethyl)-7-((3-hydroxypyrrolidin-1-yl)methyl)pyrido[3,2-d]pyrimidin-4-yl)amino)-2,2′-dimethyl-[1,1′-biphenyl]-3-yl)benzo[d]oxazol-5-yl)methyl)piperidine-4-carboxylic acid]

- dissolution in solvent ([3]; ethanol): complete dissolution
- dissolution in solvent ([3]; water): complete dissolution
Compound: Cc1c(Nc2nc(C(F)F)nc3cc(CN4CC[C@@H](O)C4)cnc23)cccc1-c1cccc(-c2nc3cc(CN4CCC(C(=O)O)CC4)cc(C#N)c3o2)c1C [methanesulfonic acid salt, (R)-1-((7-cyano-2-(3′-((2-(difluoromethyl)-7-((3-hydroxypyrrolidin-1-yl)methyl)pyrido[3,2-d]pyrimidin-4-yl)amino)-2,2′-dimethyl-[1,1′-biphenyl]-3-yl)benzo[d]oxazol-5-yl)methyl)piperidine-4-carboxylic acid]
